From paper PMC12655351, “Synthesis and Anticancer Activity Evaluation of New 5-((5-Nitrofuran-2-yl)allylidene)-2-thioxo-4-thiazolidinones” (Pharmaceuticals, 2025)
Where “and” joins values, the source holds several entries; their conditions need not be identical. Equal values may be shown once. Read-outs that look alike come from different tables or passages of the source.

Experiments:
K-562 [1] = conditions: K-562, 48 h
MOLT-4 = conditions: MOLT-4, 48 h
HCC-2998 = conditions: for growth GP: HCC-2998, 10 μM, 48 h
HT29 = conditions: HT29, 48 h
SF-268 [2] = tested on: SF-268
SK-MEL-5 = conditions: for CC50: human
UACC-257 = conditions: for CC50: human, 48 h
786-0 = conditions: 786-0, 48 h
TK-10 = conditions: for growth GP: TK-10, 10 μM; for growth GP / CC50: 48 h; for CC50: human
T-47D [3] = conditions: 48 h
[4] = tested on: Non-small cell lung cancer; conditions: Non-small cell lung cancer subpanel
Melanoma = Melanoma subpanel
Ovarian cancer = Ovarian cancer subpanel
Renal Cancer [5] = conditions: Renal Cancer subpanel
CCRF-CEM = experiment: cells; conditions: Homo sapiens, 48 h
K-562 [6] = experiment: cells; conditions: Homo sapiens, K562, 48 h; for GI50: K-562, 48 h; for CC50: read-out: LC50
SR [7] = experiment: cells; conditions: Homo sapiens, 48 h
NCI/ADR-RES = experiment: cells; conditions: Homo sapiens, 48 h
CAKI-1 = experiment: cells; conditions: Homo sapiens, CAKI-1, 48 h
SN12C = experiment: cells; conditions: Homo sapiens, 48 h
PC-3 = experiment: cells; conditions: Homo sapiens, PC-3, 48 h
T-47D [8] = experiment: cells; conditions: Homo sapiens, T47D, 48 h; for CC50: read-out: LC50
CNS cancer = experiment: cells; conditions: Homo sapiens; for GI50: read-out: MG_MID GI50; for CC50: read-out: MG_MID LC50
Renal Cancer [9] = experiment: cells; conditions: Homo sapiens; for GI50: read-out: MG_MID GI50; for CC50: read-out: MG_MID LC50
HL-60(TB) = experiment: NCI-60 SRB screen
HOP-92 = experiment: NCI-60 SRB screen; conditions: HOP-92, 48 h
SW-620 = experiment: NCI-60 SRB screen; conditions: SW-620, 48 h
SF-295 = experiment: NCI-60 SRB screen; conditions: SF-295, 48 h; for CC50: read-out: LC50, SF-295, 48 h
MALME-3M = experiment: NCI-60 SRB screen; conditions: 48 h
UACC-62 = experiment: NCI-60 SRB screen; conditions: for GI50 / CC50: UACC-62, 48 h; for growth GP: UACC-62, 10 μM, 48 h
OVCAR-5 = experiment: NCI-60 SRB screen; conditions: for growth GP: OVCAR-5, 10 μM, 48 h; for TGI / GI50: OVCAR-5, 48 h
MCF7 = experiment: NCI-60 SRB screen; conditions: MCF7, 48 h
MDA-MB-468 = experiment: NCI-60 SRB screen; conditions: MDA-MB-468, 48 h
SR [10] = conditions: 48 h
UO-31 [11] = tested on: UO-31
SF-268 [12] = experiment: cells; conditions: Homo sapiens, SF-268, 48 h
SK-MEL-28 = experiment: cells; conditions: Homo sapiens, SK-MEL-28, 48 h
UO-31 [13] = experiment: cells; conditions: Homo sapiens, UO-31, 48 h
BT-549 = experiment: cells; conditions: Homo sapiens, BT-549, 48 h, read-out: LC50, BT-549, 48 h
[14] = Homo sapiens, read-out: LC50, HOP-92, 48 h

In the case of `O=C(O)CCCN1C(=O)/C(=C/C=C/c2ccc([N+](=O)[O-])o2)SC1=S` [13b, 4-((Z)-5-((E)-3-(5-Nitrofuran-2-yl)allylidene)-4-oxo-2-thioxothiazolidin-3-yl)butanoic acid], the GI50 (K-562 [1]) is reported as 0.09 µM, the TGI (K-562 [1]) is reported as over 100 µM and the GI50 (MOLT-4) is reported as 0.29 µM. The TGI (MOLT-4) was 1.86 µM and 1.16 µM, the “growth GP” value (HCC-2998) was -95.27% and the GI50 (HT29) was 0.26 µM. The TGI (SF-268 [2]; SF-268, 48 h) was 2.84 µM and 2.89 µM, the “growth GP” value (SK-MEL-5; SK-MEL-5, 10 μM, 48 h) was -98.67% and the GI50 (SK-MEL-5; SK-MEL-5, 48 h) was 1.21 µM. For the same compound, the TGI (SK-MEL-5; SK-MEL-5, 48 h) was 1.97 µM and 2.68 µM, the CC50 (SK-MEL-5; 48 h) was 5.96 µM and the TGI (UACC-257; UACC-257, 48 h) was 3.15 µM and 1.73 µM. For the same compound, the CC50 (UACC-257) was 4.66 µM, the GI50 (786-0) was 0.28 µM and the TGI (786-0) was 1.30 µM and 0.90 µM. The “growth GP” value (TK-10) was -97.38%, the TGI (TK-10; TK-10, 48 h) was 3.18 µM and 2.03 µM and the CC50 (TK-10) was 4.77 µM. The GI50 (T-47D [3]) was 0.23 µM, the “MG_MID TGI” value [4] was 4.48 µM and the “MG_MID TGI” value (Melanoma) was 1.46 µM. For the same compound, the “MG_MID TGI” value (Ovarian cancer) was 2.99 µM, the “MG_MID TGI” value (Renal Cancer [5]) was 2.60 µM and the GI50 (CCRF-CEM) was 0.19 µM. The GI50 (K-562 [6]) was 0.16 µM, the CC50 (K-562 [6]) was over 100 µM and the CC50 (SR [7]; read-out: LC50) was over 100 µM. The GI50 (NCI/ADR-RES) was 0.29 µM, the GI50 (CAKI-1) was 0.67 µM and the GI50 (SN12C) was 0.34 µM. The GI50 (PC-3) was 0.62 µM, the GI50 (T-47D [8]; T-47D) was 0.34 µM and the CC50 (T-47D [8]) was over 100 µM. It also gave a GI50 (CNS cancer) of 0.8 µM, a CC50 (CNS cancer) of 6.68 µM and a GI50 (Renal Cancer [9]) of 0.99 µM. For the same compound, the CC50 (Renal Cancer [9]) was 7.48 µM, the CC50 (HL-60(TB); Homo sapiens, HL-60, 48 h, read-out: LC50, HL-60(TB), 48 h) was over 100 µM and the CC50 (HOP-92; [14]) was 6.33 µM. For the same compound, the CC50 (HOP-92; read-out: LC50) was 4.24 µM, the GI50 (SW-620; Homo sapiens) was 0.24 µM and the GI50 (SW-620) was 0.28 µM. For the same compound, the TGI (SW-620) was 0.54 µM and 0.83 µM, the CC50 (SF-295; Homo sapiens) was 6.31 µM and the TGI (SF-295) was 3.24 µM and 2.07 µM. The GI50 (MALME-3M; Homo sapiens, Malme-3M) was 0.24 µM, the GI50 (MALME-3M; MALME-3M) was 0.15 µM and the TGI (MALME-3M; MALME-3M) was 0.60 µM and 0.35 µM. The GI50 (UACC-62; Homo sapiens) was 0.31 µM, the “growth GP” value (UACC-62) was -95.10% and the GI50 (UACC-62) was 0.18 µM. The “growth GP” value (OVCAR-5) was -97.64%, the TGI (OVCAR-5) was 3.32 µM and 2.02 µM and the GI50 (MCF7; Homo sapiens) was 0.35 µM. The GI50 (MCF7) was 0.2 µM, the TGI (MCF7) was 1.97 µM and 1.58 µM and the GI50 (MDA-MB-468; Homo sapiens) was 0.33 µM. The GI50 (MDA-MB-468) was 0.17 µM.

In the case of `O=C(O)CCCCCN1C(=O)/C(=C/C=C/c2ccc([N+](=O)[O-])o2)SC1=S` [14b, 6-((Z)-5-((E)-3-(5-nitrofuran-2-yl)allylidene)-4-oxo-2-thioxothiazolidin-3-yl)hexanoic acid], the GI50 (K-562 [1]) is reported as 0.28 µM, the GI50 (MOLT-4) is reported as 0.31 µM and the TGI (MOLT-4) is reported as 1.50 µM and 1.21 µM. For the same compound, the TGI (SR [10]) was 0.96 µM, the “growth GP” value (HCC-2998) was -95.72% and the GI50 (HCC-2998; HCC-2998, 48 h) was 1.6 µM. The TGI (HCC-2998; HCC-2998, 48 h) was 3.32 µM and 2.98 µM, the GI50 (HT29) was 1.13 µM and the TGI (HT29) was 2.71 µM and 3.39 µM. The GI50 (SF-268 [2]; SF-268, 48 h) was 1.32 µM, the TGI (SF-268 [2]; SF-268, 48 h) was 2.71 µM and 3.63 µM and the CC50 (SF-268 [2]; human, 48 h) was 9.99 µM. The TGI (SK-MEL-5; SK-MEL-5, 48 h) was 1.98 µM and 3.14 µM, the CC50 (SK-MEL-5; 48 h) was 6.38 µM and the GI50 (UACC-257; UACC-257, 48 h) was 1.4 µM. The TGI (UACC-257; UACC-257, 48 h) was 3.16 µM and 3.08 µM, the CC50 (UACC-257) was 6.81 µM and the GI50 (786-0) was 0.32 µM. For the same compound, the TGI (786-0) was 2.06 µM and 1.23 µM, the “growth GP” value (TK-10) was -95.04% and the GI50 (TK-10; TK-10, 48 h) was 1.85 µM. For the same compound, the TGI (TK-10; TK-10, 48 h) was 3.32 µM and 3.47 µM, the CC50 (TK-10) was 6.33 µM and the GI50 (UO-31 [11]; UO-31, 48 h) was 0.67 µM. For the same compound, the TGI (UO-31 [11]; UO-31, 48 h) was 1.85 µM and 2.05 µM, the CC50 (UO-31 [11]; human, 48 h) was 4.89 µM and the “MG_MID TGI” value [4] was 3.85 µM. For the same compound, the “MG_MID TGI” value (Melanoma) was 1.82 µM, the “MG_MID TGI” value (Ovarian cancer) was 2.92 µM and the “MG_MID TGI” value (Renal Cancer [5]) was 4.63 µM. The GI50 (CCRF-CEM) was 0.18 µM, the GI50 (K-562 [6]) was 0.2 µM and the CC50 (K-562 [6]) was over 100 µM. It also gave a GI50 (SR [7]) of 0.27 µM, a GI50 (SF-268 [12]) of 1.26 µM and a CC50 (SF-268 [12]; read-out: LC50, SF-268, 48 h) of 5.82 µM. The GI50 (SK-MEL-28) was 1.64 µM, the CC50 (SK-MEL-28; read-out: LC50, SK-MEL-28, 48 h) was 5.9 µM and the GI50 (NCI/ADR-RES) was 0.45 µM. For the same compound, the GI50 (CAKI-1) was 0.83 µM, the GI50 (SN12C) was 0.36 µM and the CC50 (SN12C; read-out: LC50, SN12C, 48 h) was 3.89 µM. The GI50 (UO-31 [13]) was 0.52 µM, the CC50 (UO-31 [13]; read-out: LC50, UO-31, 48 h) was 4.31 µM and the CC50 (BT-549) was 5.07 µM. For the same compound, the CC50 (T-47D [8]) was over 100 µM, the GI50 (CNS cancer) was 1.14 µM and the CC50 (CNS cancer) was 6.09 µM. The GI50 (Renal Cancer [9]) was 1.98 µM, the CC50 (Renal Cancer [9]) was 10.4 µM and the GI50 (HL-60(TB); HL-60(TB), 48 h) was 1.11 µM. The TGI (HL-60(TB); HL-60(TB), 48 h) was 3.32 µM and 2.81 µM, the GI50 (HL-60(TB); Homo sapiens, HL-60, 48 h, HL-60(TB), 48 h) was 0.75 µM and the GI50 (HOP-92) was 1.05 µM. For the same compound, the TGI (HOP-92) was 3.34 µM and 2.48 µM, the GI50 (HOP-92; Homo sapiens) was 1.74 µM and the CC50 (HOP-92; [14]) was 6.41 µM. The GI50 (SW-620; Homo sapiens) was 0.23 µM, the GI50 (SW-620) was 0.24 µM and the TGI (SW-620) was 0.57 µM and 0.61 µM. It also gave a GI50 (SF-295; Homo sapiens) of 1.91 µM, a CC50 (SF-295; Homo sapiens) of 8.72 µM and a GI50 (SF-295) of 1.7 µM. The TGI (SF-295) was 4.08 µM and 3.36 µM, the GI50 (MALME-3M; Homo sapiens, Malme-3M) was 0.28 µM and the CC50 (MALME-3M; Homo sapiens, Malme-3M, read-out: LC50, MALME-3M, 48 h) was 2.85 µM. The GI50 (MALME-3M; MALME-3M) was 0.24 µM, the TGI (MALME-3M; MALME-3M) was 0.76 µM and 0.72 µM and the CC50 (MALME-3M; read-out: LC50, MALME-3M) was 2.72 µM. For the same compound, the GI50 (UACC-62; Homo sapiens) was 0.37 µM, the CC50 (UACC-62; Homo sapiens, read-out: LC50, UACC-62, 48 h) was 4.08 µM and the “growth GP” value (UACC-62) was -96.88%. The GI50 (UACC-62) was 0.25 µM, the CC50 (UACC-62; read-out: LC50) was 2.82 µM and the GI50 (OVCAR-5; Homo sapiens) was 1.85 µM. For the same compound, the “growth GP” value (OVCAR-5) was -96.01%, the GI50 (OVCAR-5) was 1.56 µM and the TGI (OVCAR-5) was 3.31 µM and 2.97 µM. For the same compound, the GI50 (MCF7; Homo sapiens) was 0.39 µM, the GI50 (MCF7) was 0.44 µM and the TGI (MCF7) was 1.82 µM and 1.99 µM. It also gave a CC50 (MDA-MB-468; Homo sapiens, read-out: LC50, MDA-MB-468, 48 h) of 5.27 µM.
